Results taken from patent US20240228488A1 (TAKEDA PHARMACEUTICAL COMPANY LIMITED, priority 2021, published 2024).

molecular target: human activated kallikrein enzyme (Homo sapiens, UniProt P03952); assay: Plasma kallikrein inhibition, fluorogenic PFR-AMC substrate, 500 pM activated kallikrein format; assay type: biochemical; details: 500 pM activated kallikrein, 300 uM PFR-AMC, 30 min preincubation, 10 min reaction; read-out: Primary Dose Response Assay: Average EC50
Summary of the method: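 Fluorogenic readout (ex 380 / em 460 nm) after 10 min room-temperature reaction with 300 uM Pro-Phe-Arg-AMC substrate, following 30 min preincubation of inhibitors with 500 pM enzyme. Buffer: Tris pH 7.5, EDTA, NaCl, PEG-400, Triton X-100. Values given as EC50 ranges.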

Sequence of human activated kallikrein enzyme (P03952 391-638 limits assumed): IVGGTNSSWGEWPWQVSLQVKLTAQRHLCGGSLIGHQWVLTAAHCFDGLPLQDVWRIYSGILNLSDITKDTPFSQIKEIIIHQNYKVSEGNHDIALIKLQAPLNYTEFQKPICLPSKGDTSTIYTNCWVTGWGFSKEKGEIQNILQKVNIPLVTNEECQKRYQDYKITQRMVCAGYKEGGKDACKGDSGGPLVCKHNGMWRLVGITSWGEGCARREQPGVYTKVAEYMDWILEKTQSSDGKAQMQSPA
Sequence of human activated kallikrein enzyme (P03952 20-390 partner limits assumed): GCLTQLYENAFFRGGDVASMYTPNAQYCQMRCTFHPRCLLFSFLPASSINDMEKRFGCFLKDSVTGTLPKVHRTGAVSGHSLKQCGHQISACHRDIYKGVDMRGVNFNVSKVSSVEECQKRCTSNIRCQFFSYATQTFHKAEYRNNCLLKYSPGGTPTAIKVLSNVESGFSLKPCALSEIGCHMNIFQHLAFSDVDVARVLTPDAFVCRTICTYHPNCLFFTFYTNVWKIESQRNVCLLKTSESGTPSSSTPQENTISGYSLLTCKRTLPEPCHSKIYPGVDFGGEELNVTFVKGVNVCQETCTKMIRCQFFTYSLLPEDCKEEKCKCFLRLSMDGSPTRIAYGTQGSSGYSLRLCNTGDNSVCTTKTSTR

Row | Compound | EC50 [nM]
1 | O=C(Nc1cc(N(CCO)Cc2cn3cc(C4CC4)ccc3n2)ncn1)[C@H]1C[C@@H]1c1cccc(Cl)c1 [Example 77, (1S,2S)-2-(3-chlorophenyl)-N-(6-(((6-cyclopropylimidazo[1,2-a]pyridin-2-yl)methyl)(2-hydroxyethyl)amino)pyrimidin-4-yl)cyclopropane-1-carboxamide] | 10 to 100
2 | Cc1ccnc([C@H]2C[C@@H]2C(=O)Nc2cc(N3CC(C)(O)C[C@@H]3c3cn4cc(C5CC5)ccc4n3)ncn2)n1 (stereo partly drawn) [Example 426, (1S,2S)-N-(6-((2R)-2-(6-cyclopropylimidazo[1,2-a]pyridin-2-yl)-4-hydroxy-4-methylpyrrolidin-1-yl)pyrimidin-4-yl)-2-(4-methylpyrimidin-2-yl)cyclopropane-1-carboxamide] | 10 to 100
3 | O=C(Nc1cc(NCc2cn3cc(C4CC4)cc(N4CCC(O)CC4)c3n2)ncn1)[C@H]1C[C@@H]1c1cccc(Cl)c1 (stereo in doubt) [Example I-3, (1S,2S)-2-(3-chlorophenyl)-N-(6-(((6-cyclopropyl-8-(4-hydroxypiperidin-1-yl)imidazo[1,2-a]pyridin-2-yl)methyl)amino)pyrimidin-4-yl)cyclopropane-1-carboxamide] | 1 to 10
4 | COc1cc([C@H]2C[C@@H]2C(=O)Nc2cc(NCc3cn4cc(C5CC5)ccc4n3)ccn2)cc(NC(=O)OC(C)(C)C)n1 (racemic) [Example I-216, rac-tert-butyl (4-((1S*,2S*)-2-((4-(((6-cyclopropylimidazo[1,2-a]pyridin-2-yl)methyl)amino)pyridin-2-yl)carbamoyl)cyclopropyl)-6-methoxypyridin-2-yl)carbamate] | > 6000

The remaining lines, values ahead:

Row | EC50 [nM] | Compound
5 | < 1 | Cc1ccnc([C@H]2C[C@@H]2C(=O)Nc2cc3c(cn2)nnn3Cc2cn3cc(C4CC4)cc(N4CC(=O)N(C)C4=O)c3n2)n1 [Example I-635, (1S,2S)—N-(1-((6-cyclopropyl-8-(3-methyl-2,4-dioxoimidazolidin-1-yl)imidazo[1,2-a]pyridin-2-yl)methyl)-1H-[1,2,3]triazolo[4,5-c]pyridin-6-yl)-2-(4-methylpyrimidin-2-yl)cyclopropane-1-carboxamide]
6 | 1 to 10 | O=C(O)c1nc(NCc2cn3cc(C4CC4)ccc3n2)cc(NC(=O)[C@H]2C[C@@H]2c2cccc(Cl)c2)n1 (racemic) [Example 112, rac-4-((1S*,2S*)-2-(3-chlorophenyl)cyclopropane-1-carboxamido)-6-(((6-cyclopropylimidazo[1,2-a]pyridin-2-yl)methyl)amino)pyrimidine-2-carboxylic acid]
7 | 10 to 100 | CC(NC(=O)[C@H]1C[C@@H]1c1cccc(Cl)c1)c1cn(Cc2cn3cc(C4CC4)ccc3n2)nn1 (single isomer, unassigned) [Example 590, rac-(1S*,2S*)-2-(3-chlorophenyl)-N-(1-(1-((6-cyclopropylimidazo[1,2-a]pyridin-2-yl)methyl)-1H-1,2,3-triazol-4-yl)ethyl)cyclopropane-1-carboxamide]
8 | 1 to 10 | O=C(Nc1cnnc(NCc2cn3cc(C4CC4)ccc3n2)c1)[C@H]1C[C@@H]1c1cccc(Cl)c1 (racemic) [Example 348, (rac-(1S*,2S*))-2-(3-chlorophenyl)-N-(6-(((6-cyclopropylimidazo[1,2-a]pyridin-2-yl)methyl)amino)pyridazin-4-yl)cyclopropane-1-carboxamide]
9 | < 1 | Cc1ccnc([C@H]2C[C@@H]2C(=O)Nc2cc(N[C@H](C)c3cn4cc(C5CC5)cc(N5CC(=O)N(C)C5=O)c4n3)nc(N(C)C)n2)n1 [Example 441, (1S,2S)-N-(6-(((R)-1-(6-cyclopropyl-8-(3-methyl-2,4-dioxoimidazolidin-1-yl)imidazo[1,2-a]pyridin-2-yl)ethyl)amino)-2-(dimethylamino)pyrimidin-4-yl)-2-(4-methylpyrimidin-2-yl)cyclopropane-1-carboxamide]
10 | < 1 | Cc1ccnc([C@H]2C[C@@H]2C(=O)Nc2cc(O[C@H](C)c3cn4cc(C5CC5)cc(N5CC(=O)N(C)C5=O)c4n3)cnn2)n1 (single isomer, unassigned) [Example 42]
